{"source": "patent US6537553B1", "about": "“Leukosialin: Ig fusion proteins” (La Jolla Cancer Research Foundation, priority 1993, dated 2003)", "key": {"[1]": {"system": "activated mouse tEnd.1 cells (E-selectin mediated adhesion)", "test": "Inhibition of adhesion of SM colonic carcinoma cells to IL-1β-activated mouse tEnd.1 endothelial cell monolayers", "type": "cell-based", "conditions": "for inhibition of adhesion of SM cells to activated mouse tEnd.1 cells: IL-1β-activated tEnd.1 monolayers, result in words (FIG. 4, 5A, 5B)", "source_text": "The mouse endothelioma cell lines, eEnd.2, sEnd.1, tEnd.1, and bEnd.4 were kindly provided by Dr. R. Lindsay Williams at the Ludwig Institute for Cancer Research, […], Austria. These cell lines, originally derived from a subcutaneous (sEnd.1), thymic (tEnd.1), embryonal (eEnd.2), and brain (bEnd.4) hemangliomas produced in transgenic mice expressing polyoma middle T antigen (Williams et al., Cell 52:121-131 (1988)). The cells were maintained in Dulbecco's modified Eagle's medium containing 10% fetal calf serum. Mouse endothelioma cell lines were cultured in 96-well tissue culture plates and activated with 10 units/ml IL-1β (Sigma) and then washed with Dulbecco's modified Eagle's medium containing 5% fetal calf serum before the colonic carcinoma cells were added. As the control, non-activated mouse endothelial cells were prepared identically and used in parallel for the adhesion assays. The adhesion and inhibition of the adhesion by soluble lamp-1 and soluble leukosialin were carried out exactly as described previously (Sawada et al., supra).\nInhibition by sialyl Le^x-positive glycolipid, NeuNAcα2→3Galβ1→4-(Fucα1→3)GlcNAcβ1→3Galβ1→4Glc→Cer was tested after the glycolipid was incorporated into liposomes (Phillips et al., Science 250:1130-1132 (1990)). Paragloboside, NeuNAcα2→3Galβ1→4GlcNAcβ1→3Galβ1→4Glc→Cer was used as a control glycolipid. Sialyl Le^x glycolipid (Kameyama et al., Carbohydr. Res. 209:C1-C4 (1991)) and paragloboside were kindly provided by Drs. Akira Hasegana, Gifu University, Japan, and Michiko Fukuda at this institute, respectively. In order to determine if sialyl Le^x structure on the human colonic cells are recognized by mouse endothelial cells, the adhesion was assayed after the colonic cells were preincubated with anti-sialyl Le^x antibody (CSLEX, IgM) or mouse anti-Le^x monoclonal antibody (anti-PMN-6, IgM). The anti-PMN-6 antibody (Ball and Fanger, Blood 61:456-463 (1983)) was kindly provided by Dr. Ball of the Dartmouth Medical School.\nFirst, the binding of the cell line with the highest adhesion efficiency was tested in the presence of a sialyl Le^x containing glycolipid. SM cells were subjected to adhesion to activated mouse tEnd.1 cells as described in Example IV (and FIG. 3) (open bar), or as in FIG. 3 after pretreatment of the activated monolayers with liposomes containing sialyl Le^x glycolipid (hatched bars), or after pretreatment with liposomes containing the control glycolipid paragloboside (cross-hatched bar). The amount of glycolipid is shown in μg/ml at the x axis. The adhesion to non-activated mouse endothelial cells is shown by the closed bar. Data correspond to the fraction of applied cells still adherent to tEnd.1 cells after washing and are mean and standard deviation from four replicate assays.\nThe adhesion of SM cells to activated mouse tEnd.1 cells was tested for inhibition by soluble lamp-1 (FIG. 5A) or soluble leukosialin (FIG. 5B). The inhibition by soluble lamp-1 or soluble leukosialin derived from sialyl Le^x positive CHO cells is shown by hatched bars.\nInhibition by control soluble lamp-1 or control soluble leukosialin, which were derived from sialyl Le^x negative CHO cells, is shown by cross-hatched bars. The open bar represents the control without the inhibitors while the closed bar represents the adhesion to unstimulated mouse tEnd.1 monolayers. The experiments shown in FIGS. 5A and 5B were carried out at the same time."}, "[2]": {"biological_target": "mouse E-selectin on IL-1β-activated mouse tEnd.1 endothelioma cells (mouse) (UniProt Q00690)", "sequence (Q00690 22-612)": "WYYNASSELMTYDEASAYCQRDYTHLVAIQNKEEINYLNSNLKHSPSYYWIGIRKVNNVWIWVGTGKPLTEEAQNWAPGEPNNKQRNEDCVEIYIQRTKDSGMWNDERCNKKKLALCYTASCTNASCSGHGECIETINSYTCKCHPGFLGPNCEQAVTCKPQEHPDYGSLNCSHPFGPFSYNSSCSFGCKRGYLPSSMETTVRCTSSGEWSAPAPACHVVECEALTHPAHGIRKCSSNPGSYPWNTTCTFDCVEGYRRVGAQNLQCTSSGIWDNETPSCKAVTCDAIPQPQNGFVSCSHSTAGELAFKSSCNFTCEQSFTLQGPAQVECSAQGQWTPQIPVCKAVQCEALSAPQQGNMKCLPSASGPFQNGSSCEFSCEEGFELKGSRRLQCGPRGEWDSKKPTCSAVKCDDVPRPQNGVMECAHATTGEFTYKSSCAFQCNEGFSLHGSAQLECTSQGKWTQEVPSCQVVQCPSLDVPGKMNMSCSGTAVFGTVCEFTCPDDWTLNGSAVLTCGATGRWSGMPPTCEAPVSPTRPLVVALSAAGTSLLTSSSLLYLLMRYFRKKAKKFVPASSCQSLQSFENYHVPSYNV", "test": "cell-based or functional assay"}, "HUVEC": {"system": "HUVEC", "conditions": "as described in Sawada et al. (1993); cited from earlier work"}}, "data": [{"molecule": "NeuNAcα2→3Galβ1→4-(Fucα1→3)GlcNAcβ1→3Galβ1→4Glc→Cer [sialyl Le^x glycolipid, reference compound]", "values": [{"measurement": "inhibition of adhesion of SM cells to activated mouse tEnd.1 cells", "setting": "[1]; SM cells", "value": "inhibited by liposomes containing sialyl Le^x glycolipid in a dose-dependent manner"}, {"measurement": "inhibition of adhesion to mouse cells compared with human endothelial cells", "setting": "[1]; same carcinoma cells, same conditions, mouse vs human endothelial cells", "value": "not as effective as the inhibition of the same carcinoma cells to human endothelial cells"}]}, {"molecule": "NeuNAcα2→3Galβ1→4GlcNAcβ1→3Galβ1→4Glc→Cer [sialyl paragloboside, reference compound]", "values": [{"measurement": "inhibition of adhesion of SM cells to activated mouse tEnd.1 cells", "setting": "[1]; SM cells", "value": "did not inhibit the adhesion even at high concentrations"}]}, {"molecule": "sialyl-Le^x-negative leukosialin: soluble leukosialin IgG chimeric protein lacking the sialyl-Le^x determinant, from control CHO cells without Fuc-TIII vector [reference compound]", "values": [{"measurement": "inhibition of adhesion of SM cells to activated mouse tEnd.1 cells", "setting": "[1]; SM cells", "value": "inhibited the binding minimally"}, {"measurement": "inhibition of adhesion of SM cells to activated mouse tEnd.1 cells", "setting": "[1]; SM cells, listed as soluble sialyl Le^x negative leukosialin", "value": "inhibited binding only minimally"}]}, {"molecule": "sialyl-Le^x-positive leukosialin: soluble leukosialin fused to human IgG1 hinge plus constant region, from CHO cells expressing core 2 GlcNAc-transferase and Fuc-TIII; carries sialyl Le^x", "values": [{"measurement": "inhibition of adhesion of SM cells to activated mouse tEnd.1 cells", "setting": "[1]; SM cells", "value": "inhibited the adhesion of SM cells to mouse tEnd.1 cells in a concentration-dependent manner"}, {"measurement": "inhibition of adhesion of SM cells to activated mouse tEnd.1 cells", "setting": "[1]; SM cells, listed as sialyl Le^x positive leukosialin", "value": "inhibited the adhesion of SM cells to mouse tEnd.1 cells in a concentration dependent manner"}, {"measurement": "binding of SM cells to tEnd.1 cells, relative to control levels", "setting": "[1]; SM cells, activated tEnd.1, concentration not stated in text (FIG. 5B)", "value": "30 % of control levels"}]}, {"molecule": "soluble chimeric leukosialin-IgG protein, sialyl Le^x positive (from CHO-leu.C2GnT cells transfected with pSRα.s-leu.IgG and pcDNAI-Fuc.TIII) (from UniProt P16150 20-252; P01857 99-330) (Fc fusion)", "values": [{"measurement": "adhesion of SM cells to mouse tEnd.1 cells, percent of control (% of control levels)", "setting": "[2]", "value": 30}]}, {"molecule": "soluble lamp-1 containing the sialyl Le^x: soluble form of lysosomal membrane glycoprotein-1 from CHO cells co-transfected with Fuc-TIII vector; carries sialyl Le^x (protein) AMFMVKNGNGTACIMANFSAAFSVNYDTKSGPKNMTFDLPSDATVVLNRSSCGKENTSDPSLVIAFGRGHTLTLNFTRNATRYSVQLMSFVYNLSDTHLFPNASSKEIKTVESITDIRADIDKKYRCVSGTQVHMNNVTVTLHDATIQAYLSNSSFSRGETRCEQDRPSPTTAPPAPPSPSPSPVPKSPSVDKYNVSGTNGTCLLASMGLQLNLTYERKDNTTVTRLLNINPNKTSASGSCGAHLVTLELHSEGTTVLLFQFGMNASSSRFFLQGIQLNTILPDARDPAFKAANGSLRALQATVGNSYKCNAEEHVRVTKAFSVNIFKVWVQAFKVEGGQFGSVEECLLDENSM", "values": [{"measurement": "inhibition of binding of SP-pSRαlamp-1^H cells to HUVEC", "setting": "HUVEC", "value": "inhibited the binding of the SP-pSRαlamp-1^H to HUVEC"}, {"measurement": "inhibition of adhesion of SM cells to activated mouse tEnd.1 cells", "setting": "[1]; SM cells", "value": "able to inhibit the adhesion of SM cells to activated mouse tEnd.1 cells in a dose-dependent manner"}]}]}
